Values after ≈ are worked out from the molar mass of the structure shown. Active and inactive are the calls of the source. No cut-off for these calls is given here.
Legend:
[1] = molecular target: T1, Growth hormone secretagogue receptor type 1 (Homo sapiens, UniProt Q92847); test: Antagonist activity at SNAP-tagged human GHSR expressed in HEK293 cells assessed as inhibition of ghrelin-induced IP1 accumulation at 10^-5M measured after 30 mins by IP1-d2 derivative based HTRF assay relative to control; format: functional, cell-based; conditions: filed as antagonist, dose 1.0 10^-5M
T1 sequence (Q92847 whole entry): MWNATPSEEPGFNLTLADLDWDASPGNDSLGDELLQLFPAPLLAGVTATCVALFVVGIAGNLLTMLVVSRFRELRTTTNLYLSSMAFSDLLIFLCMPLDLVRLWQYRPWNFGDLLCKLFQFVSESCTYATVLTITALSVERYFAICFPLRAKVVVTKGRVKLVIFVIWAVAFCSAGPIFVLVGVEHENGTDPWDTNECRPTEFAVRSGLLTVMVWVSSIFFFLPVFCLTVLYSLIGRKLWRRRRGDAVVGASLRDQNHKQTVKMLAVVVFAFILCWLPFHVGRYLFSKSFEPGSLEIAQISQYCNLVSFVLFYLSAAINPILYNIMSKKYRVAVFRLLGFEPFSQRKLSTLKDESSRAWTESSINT

[2] = molecular target: T1, Growth hormone secretagogue receptor type 1; test: Antagonist activity at SNAP-tagged human GHSR expressed in HEK293 cells assessed as inhibition of ghrelin-induced IP1 accumulation at 10^-5M measured after 30 mins by IP1-d2 derivative based HTRF assay relative to ghrelin; format: functional, cell-based; conditions: filed as antagonist, dose 1.0 10^-5M
[3] = molecular target: T1, Growth hormone secretagogue receptor type 1; conditions: HEK293, filed as inverse agonist, dose 1.0 10^-5M, time 30.0 min
[4] = molecular target: T1, Growth hormone secretagogue receptor type 1; test: Displacement of red-ghrelin from SNAP-tagged human GHSR expressed in HEK293 cells incubated for 3 hrs at 4 degC or for 1 hr at room temperature by HTRF assay; format: cell-based
[5] = molecular target: T1, Growth hormone secretagogue receptor type 1; test: Inverse agonist activity at SNAP-tagged human GHSR expressed in HEK293 cells assessed as inhibition of ghrelin-induced IP1 response measured after 30 mins by HTRF assay; format: functional, cell-based
[6] = Toxicity in wild type C57BL6/J mouse assessed as effect on body weight at 1 nmol, icv injection for 2 mins via cannula; conditions: in vivo, icv_or_intrathecal
[7] = Toxicity in wild type C57BL6/J mouse assessed as reduced activity at 1 nmol, icv injection for 2 mins via cannula; conditions: in vivo, icv_or_intrathecal
Mus musculus = test: Suppression of compensatory hyperphagia in wild type C57BL6/J mouse assessed as reduction in cumulative food intake at 1 nmol, icv administered at 8 hrs interval for 48 hrs followed by refeeding at 2 hrs post last dose and measured for 7 days post refeeding; format: functional; parameters: scale not given: the % may be the effect or the level left; conditions: time 9 day
[8] = Anti-orexigenic activity in wild type C57BL6/J mouse assessed as reduction in ghrelin-induced food intake at 1 nmol, icv administered via cannula for 2 mins pretreated for 15 mins followed by ghrelin stimulation and measured after 2 hrs relative to control; format: functional; parameters: scale not given: the % may be the effect or the level left; conditions: time 135 min, 2.25 h
[9] = Toxicity in wild type C57BL6/J mouse assessed as hunched posture at 1 nmol, icv injection for 2 mins via cannula; conditions: in vivo, icv_or_intrathecal
[10] = Toxicity in wild type C57BL6/J mouse assessed as effect on early dark cycle food intake at 1 nmol, icv injection for 2 mins via cannula measured after 5 hrs (reference value: 2591 +/- 197 mg); conditions: in vivo, icv_or_intrathecal
[11] = Toxicity in wild type C57BL6/J mouse assessed as altered breathing rate at 1 nmol, icv injection for 2 mins via cannula; conditions: in vivo, icv_or_intrathecal
[12] = Toxicity in wild type C57BL6/J mouse assessed as sickness-like behavior at 1 nmol, icv injection for 2 mins via cannula; conditions: in vivo, icv_or_intrathecal
[13] = Toxicity in wild type C57BL6/J mouse assessed as effect on labored movement at 1 nmol, icv injection for 2 mins via cannula; conditions: in vivo, icv_or_intrathecal
[14] = Toxicity in wild type C57BL6/J mouse assessed as subdued behavior at 1 nmol, icv injection for 2 mins via cannula; conditions: in vivo, icv_or_intrathecal
[15] = Toxicity in wild type C57BL6/J mouse assessed as appearance of spiky coat at 1 nmol, icv injection for 2 mins via cannula; conditions: in vivo, icv_or_intrathecal
[16] = Solubility of the compound in water; format: physicochemical
[17] = molecular target: Growth hormone secretagogue receptor type 1 (Rattus norvegicus) (UniProt O08725); test: Inverse agonist activity at GHSR in Wistar rat pancreatic islets assessed as suppression of ghrelin-induced inhibition of glucose-stimulated insulin secretion at 1 uM after 1 hr in presence of glucose; format: tissue-based; conditions: Pancreas, filed as inverse agonist
Growth hormone secretagogue receptor type 1 (Rattus norvegicus), sequence (O08725 whole entry): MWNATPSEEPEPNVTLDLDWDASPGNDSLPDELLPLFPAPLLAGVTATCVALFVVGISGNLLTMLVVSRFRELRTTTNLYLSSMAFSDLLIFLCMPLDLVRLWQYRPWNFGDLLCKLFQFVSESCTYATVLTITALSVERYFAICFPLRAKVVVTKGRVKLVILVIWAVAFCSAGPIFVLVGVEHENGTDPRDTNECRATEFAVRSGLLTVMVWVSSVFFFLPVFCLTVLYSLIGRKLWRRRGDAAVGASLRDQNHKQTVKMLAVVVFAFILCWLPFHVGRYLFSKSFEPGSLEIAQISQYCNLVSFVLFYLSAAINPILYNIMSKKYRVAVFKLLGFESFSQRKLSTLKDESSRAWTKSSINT

[18] = molecular target: T1, Growth hormone secretagogue receptor type 1; test: Agonist activity at SNAP-tagged human GHSR expressed in HEK293 cells assessed as stimulation of ghrelin-induced increase in IP1 accumulation at 10^-5 M measured after 30 mins by IP1-d2 derivative based HTRF assay relative to control; format: functional, cell-based; conditions: filed as agonist, dose 1.0 10^-5M
[19] = molecular target: T1, Growth hormone secretagogue receptor type 1; test: Agonist activity at SNAP-tagged human GHSR expressed in HEK293 cells assessed as stimulation of ghrelin-induced increase in IP1 accumulation at 10^-5 M measured after 30 mins by IP1-d2 derivative based HTRF assay relative to ghrelin; format: functional, cell-based; conditions: filed as agonist, dose 1.0 10^-5M

Compound: COc1ccc(Cn2c(CCc3ccccc3)nnc2[C@@H](Cc2c[nH]c3ccccc23)NC(=O)CNC(=O)/C=C/c2ccc(F)cc2)cc1
- %max [1]: 74%
- %max [2]: 71%

Compound: COc1ccc(Cn2c(CCc3ccccc3)nnc2[C@@H](Cc2c[nH]c3ccccc23)NC(=O)CNC(=O)/C(C#N)=C/c2c[nH]c3ccccc23)cc1
- Emax [3]: 79%
- Ki [4]: 6.3 nM
- EC50 [5]: 28 nM

Compound: CC(C)C[C@H](NC(=O)[C@H](CC(C)C)NC(=O)[C@@H](Cc1c[nH]c2ccccc12)NC(=O)[C@H](Cc1ccccc1)NC(=O)[C@@H](Cc1cccc2ccccc12)NC(=O)[C@@H](N)CCCCN)C(N)=O
- Activity [6]: Non-Toxic
- Activity [7]: Non-Toxic
- Activity (Mus musculus): 20.1%
- Activity [8]: 67.6%
- Activity [9]: Non-Toxic
- Activity [10]: 2623 mg
- Activity [11]: Non-Toxic
- Activity [12]: Non-Toxic
- Activity [13]: Non-Toxic
- Activity [14]: Non-Toxic
- Activity [15]: Non-Toxic

Compound: COc1ccc(Cn2c(CCN3CCOCC3)nnc2[C@@H](Cc2c[nH]c3ccccc23)NC(=O)CNC(=O)/C(C#N)=C/c2ccccc2)cc1
- Emax [3]: 49%

Compound: COc1ccc(Cn2c(CCc3ccccc3)nnc2[C@@H](Cc2c[nH]c3ccccc23)NC(=O)CNC(=O)/C(C#N)=C/c2ccc(O)cc2)cc1
- Activity [6]: Non-Toxic
- Emax [3]: 83%
- solubility ([16]; buffer): Soluble
- Activity [7]: Non-Toxic
- Activity (Mus musculus): 12.4%
- Ki [4]: 3 nM
- Activity [17]: Active
- Activity [8]: 30.3%
- Activity [9]: Non-Toxic
- Activity [10]: 2179 mg
- Activity [11]: Non-Toxic
- Activity [12]: Non-Toxic
- EC50 [5]: 27 nM
- Activity [13]: Non-Toxic
- Activity [14]: Non-Toxic
- Activity [15]: Non-Toxic

Compound: COc1ccc(/C=C(\C#N)C(=O)N[C@@H](C)C(=O)N[C@H](Cc2c[nH]c3ccccc23)c2nnc(CCc3ccccc3)n2Cc2ccc(OC)cc2)cc1
- Emax [3]: 78%
- Ki [4]: 3 nM
- EC50 [5]: 1.4 nM

Compound: COc1ccc(/C=C(\C#N)C(=O)NCC(=O)N[C@H](Cc2c[nH]c3ccccc23)c2nnc(CCc3c[nH]c4ccccc34)n2Cc2ccc(OC)cc2)cc1
- solubility ([16]; water, read-out: solubility): 3.8 µg/mL (≈ 5.19 µM)

Compound: COc1ccc(Cn2c(CCc3ccccc3)nnc2[C@@H](Cc2c[nH]c3ccccc23)NC(=O)CNC(=O)/C(C#N)=C/c2ccc(F)cc2)cc1
- Emax [3]: 76%
- Ki [4]: 0.6 nM
- EC50 [5]: 14.2 nM

Compound: COc1ccc(CC(N)C(=O)NCC(=O)N[C@H](Cc2c[nH]c3ccccc23)c2nnc(CCc3ccccc3)n2Cc2ccc(OC)cc2)cc1 (single isomer, unassigned)
- Emax [3]: 43%
- Ki [4]: 17 nM
- EC50 [5]: 62 nM

Compound: CCN(CC)CCc1nnc([C@@H](Cc2c[nH]c3ccccc23)NC(=O)CNC(=O)/C(C#N)=C/c2ccc(OC)cc2)n1Cc1ccc(OC)cc1
- Emax [3]: 69%
- Ki [4]: 10 nM
- EC50 [5]: 35 nM

Compound: COc1ccc(Cn2c(CCc3c[nH]c4ccccc34)nnc2[C@@H](Cc2c[nH]c3ccccc23)NC(=O)CNC(=O)/C(C#N)=C/c2ccc(O)cc2)cc1
- Ki [4]: 30 nM

Compound: COc1ccc(Cn2c(CCc3ccccc3)nnc2[C@@H](Cc2c[nH]c3ccccc23)NC(=O)CNC(=O)C(C#N)Cc2ccccc2)cc1 (stereo not given in full)
- %max [1]: 72%
- %max [2]: 70%

Compound: COc1ccc(Cn2c(CCN3CCOCC3)nnc2[C@@H](Cc2c[nH]c3ccccc23)NC(=O)CNC(=O)/C(C#N)=C/c2ccc(N(C)C)cc2)cc1
- Emax [3]: 64%
- Ki [4]: 6.3 nM
- EC50 [5]: 6 nM

Compound: COc1ccc(/C=C(\C#N)C(=O)NCC(=O)N[C@H](Cc2c[nH]c3ccccc23)c2nnc(CCc3ccccc3)n2Cc2ccc(OC)cc2)cc1
- Emax [3]: 86%
- Ki [4]: 0.5 nM
- EC50 [5]: 50 nM

Compound: CNCC(=O)N[C@H](Cc1c[nH]c2ccccc12)c1nnc(CCc2ccccc2)n1Cc1ccc(OC)cc1
- %max [18]: 100%
- %max [19]: 76%

Compound: COc1ccc(Cn2c(CCc3ccccc3)nnc2[C@@H](Cc2c[nH]c3ccccc23)NC(=O)CNC(=O)/C(C#N)=C/c2ccc(C)cc2)cc1
- Emax [3]: 82%
- Ki [4]: 1 nM
- EC50 [5]: 21.5 nM

Compound: COc1ccc(Cn2c(CCc3ccccc3)nnc2[C@@H](Cc2c[nH]c3ccccc23)NC(=O)CN)cc1
- %max [1]: 65%
- %max [2]: 65%

Compound: COc1ccc(Cn2c(CCc3ccccc3)nnc2[C@@H](Cc2c[nH]c3ccccc23)NC(=O)CNC(=O)/C(C#N)=C/c2ccc(N(C)C)cc2)cc1
- Emax [3]: 78%
- Ki [4]: 2.4 nM
- EC50 [5]: 89 nM

Compound: COc1ccc(/C=C(\C#N)C(=O)OCC(=O)N[C@H](Cc2c[nH]c3ccccc23)c2nnc(CCc3ccccc3)n2Cc2ccc(OC)cc2)cc1
- Ki [4]: 13 nM

Compound: COc1ccc(Cn2c(CCc3ccccc3)nnc2[C@@H](Cc2c[nH]c3ccccc23)NC(=O)CNC(=O)C#Cc2ccccc2)cc1
- %max [18]: 95%
- %max [19]: 69%

Compound: COc1ccc(Cn2c(CCc3ccccc3)nnc2[C@@H](Cc2c[nH]c3ccccc23)NC(=O)CN(C)C)cc1
- %max [18]: 96%
- %max [19]: 76%

Compound: COc1ccc(/C=C(\C#N)C(=O)NCCC(=O)N[C@H](Cc2c[nH]c3ccccc23)c2nnc(CCc3ccccc3)n2Cc2ccc(OC)cc2)cc1
- Emax [3]: 75%
- Ki [4]: 14 nM
- EC50 [5]: 3.6 nM

Compound: COc1ccc(Cn2c(CCc3ccccc3)nnc2[C@@H](Cc2c[nH]c3ccccc23)NC(=O)CNC(=O)C(C)(C)C#N)cc1
- %max [1]: 70%
- %max [2]: 70%

Source: ChEMBL document CHEMBL4665788, “Development of Nonpeptidic Inverse Agonists of the Ghrelin Receptor (GHSR) Based on the 1,2,4-Triazole Scaffold” (J Med Chem, 2020)
